One compound from US20160324152A1, “Compositions And Methods For Killing And/Or Immobilizing Insects” (The United States of America, as represented by the …, priority 2015, published 2016) can be followed below.

For this assay, the system named is Solenopsis invicta workers. As to conditions: topical. The procedure:
Topical Bioassay: Mortalities of S. invicta workers after topical treatment with Ethal TDA surfactants were determined. For ease of handling and obtaining uniform body weight, only large workers were used in the bioassay. Acetone was used as a solvent. The solution (10% w/v) was applied with a 0.779 μl capillary tube. All surfactants were tested at a concentration of 77.9 μg/ant. In the control, ants were only treated with 0.779 μl acetone. Treated ants were placed in a 30-ml capped cup at room temperature (˜23° C.) and dead ants were counted at 24 h. Three colonies were originally tested. There were 3-6 replicates for each colony. A single replicate consisted of 17 to 20 ants. In order to assess the mortality at 48 h, another three colonies were tested. For these three colonies, dead ants were counted at both 24 h and 48 h. Mortalities were adjusted using Abbott's formula (Abbott, W. S., J. Econ. Entomol., 18: 265-267 (1925)) before being used in statistical analysis. For analyzing 24 h mortality, data for all six colonies were used.
We also tested the toxicity of piperonyl butoxide (PBO) against red imported fire ants. […] Topical bioassay as described above was used: Mortalities of S. invicta workers after topical treatment with PBO were determined. […] Treated ants were placed in a 30-ml capped cup at room temperature (˜23° C.) and dead ants were counted at 24 h. […]

Read-outs that look alike come from different tables or passages of the source.

In the case of `CCCCCCCCCCCC(C)=O` [2-tridecanone], the LD50 (colony 288, PBO 0 μg/ant) is 18.96 μg/ant and the LD50 (colony 295, PBO 0 μg/ant) came out at 22.82 μg/ant.
